# The Kinase Knowledgebase extract (Sharma et al. 2016)
# Target: MAPK14 (human) (UniProt Q16539)
# Test: Inhibition of MAPK14 Kinase Assay
# Sequence of MAPK14 (human) (Q16539 whole entry, looked up): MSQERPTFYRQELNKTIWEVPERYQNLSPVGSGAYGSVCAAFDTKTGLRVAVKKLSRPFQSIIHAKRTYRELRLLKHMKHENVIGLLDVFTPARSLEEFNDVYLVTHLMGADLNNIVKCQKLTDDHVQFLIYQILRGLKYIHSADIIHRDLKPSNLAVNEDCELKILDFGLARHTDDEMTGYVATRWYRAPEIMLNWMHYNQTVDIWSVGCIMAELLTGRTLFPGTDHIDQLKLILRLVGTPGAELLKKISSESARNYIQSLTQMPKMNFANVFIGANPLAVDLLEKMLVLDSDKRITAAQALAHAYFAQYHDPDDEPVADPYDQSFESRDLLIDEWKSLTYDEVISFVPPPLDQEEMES
row,SMILES,IC50 [nM]
1,CSc1nc(-c2ccc(F)cc2)c(-c2ccncc2)n1NC(=O)C(C)c1ccccc1 (stereo not given),95
2,CSc1nc(-c2ccc(F)cc2)c(-c2ccncc2)n1NC(=O)c1ccccc1,314
3,CSc1nc(-c2ccc(F)cc2)c(-c2ccncc2)n1NC(=O)Nc1ccc(F)cc1,145
4,Cn1nc(-c2ccc(F)cc2)c(-c2ccncc2)c1NC(=O)Cc1ccccc1Cl,71
5,CSc1nc(-c2ccc(F)cc2)c(-c2ccncc2)n1NC(=O)c1ccc(C)c(F)c1,242
6,CC(C(=O)Nc1onc(-c2ccc(F)cc2)c1-c1ccncc1)c1ccccc1 (stereo not given),107
7,Cn1nc(-c2ccc(F)cc2)c(-c2ccncc2)c1NC(=O)Cc1ccc(F)cc1,29
8,CSc1nc(-c2ccc(F)cc2)c(-c2ccncc2)n1NC(=O)c1cc2ccccc2o1,873
9,O=C(Cc1ccc(F)cc1)Nc1onc(-c2ccc(F)cc2)c1-c1ccncc1,113
10,CSc1nc(-c2ccc(F)cc2)c(-c2ccncc2)n1NC(C)=O,840
11,CSc1nc(-c2ccc(F)cc2)c(-c2ccncc2)n1N,1880
12,CSc1nc(-c2ccc(F)cc2)c(-c2ccncc2)n1NC(=O)c1ccco1,308
13,CSc1nc(-c2ccc(F)cc2)c(-c2ccncc2)n1NC(=O)Cc1ccc(F)cc1,244
14,CSc1nc(-c2ccc(F)cc2)c(-c2ccncc2)n1NC(=O)COc1ccccc1,1080
15,CSc1nc(-c2ccc(F)cc2)c(-c2ccncc2)n1NC(=O)Cc1ccccc1Cl,58
